Test results published in patent publication US20010051612A1, “2-Thioether A2A receptor agonists” (priority 2000, published 2001).

Assays:
[1] = biological target: T1, A2A adenosine receptor (Sus scrofa, UniProt K9IW67); assay: Affinity for the A2A receptor in a pig striatum membrane prep (displacement of tritiated ZM 241385); format: binding; conditions: pig striatal membranes, [3H]ZM 241385 2 nM, 23° C. 2h, Ki from IC50
T1 construct: from tissue; host or cells: pig striatum membranes
Experimental: Compositions of this invention were assayed to determine their affinity for the A2A receptor in a pig striatum membrane prep. 0.2 mg of pig striatal membranes were treated with adenosine deaminase and 50 mM Tris buffer (pH=7.4) followed by mixing. […] After incubation at 23° C. for 2h, the solutions were filtered using a membrane harvester using multiple washing of the membranes (3×). The filter disks were counted in scintillation cocktail affording the amount of displacement of tritiated ZM by the competitive binding compositions of this invention. Greater than a 5 point curve was used to generate IC50's and the number of experiments (n) is indicated in the column marked in Tables 3-4 below. The Chang-Prusoff equation was used to generate Ki's from the IC50 data.

[2] = biological target: T2, A1 (Homo sapiens, UniProt P30542); assay: Affinity for the A1 receptor (Ki column, no method described); format: binding; conditions: compounds 1a-5a table
T2 sequence (P30542 1-326): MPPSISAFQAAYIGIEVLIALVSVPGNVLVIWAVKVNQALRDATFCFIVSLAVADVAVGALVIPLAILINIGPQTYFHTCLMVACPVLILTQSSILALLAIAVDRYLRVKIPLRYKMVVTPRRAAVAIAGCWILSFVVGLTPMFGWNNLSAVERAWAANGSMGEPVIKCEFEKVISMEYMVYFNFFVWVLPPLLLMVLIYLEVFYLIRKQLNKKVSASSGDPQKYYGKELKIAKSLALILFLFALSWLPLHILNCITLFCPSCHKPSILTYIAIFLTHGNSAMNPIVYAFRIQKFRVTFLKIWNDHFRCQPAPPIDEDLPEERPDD

T1 sequence (K9IW67 1-409): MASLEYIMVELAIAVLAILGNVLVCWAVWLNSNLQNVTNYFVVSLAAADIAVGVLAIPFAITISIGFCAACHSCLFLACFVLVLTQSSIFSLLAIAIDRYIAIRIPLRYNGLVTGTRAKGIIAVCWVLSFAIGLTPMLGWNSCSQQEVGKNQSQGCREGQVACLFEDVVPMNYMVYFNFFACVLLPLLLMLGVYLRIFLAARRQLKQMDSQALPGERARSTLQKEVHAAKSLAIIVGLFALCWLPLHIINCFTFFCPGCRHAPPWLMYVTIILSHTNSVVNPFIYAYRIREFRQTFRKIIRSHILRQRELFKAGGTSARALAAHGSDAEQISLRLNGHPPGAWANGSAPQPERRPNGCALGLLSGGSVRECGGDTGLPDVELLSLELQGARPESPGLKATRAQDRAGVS

| Ki ([1]; Table 3, compounds 1-7) | melting point | Ki ([1]; compounds 1a-5a) | Ki [2] | SMILES |
| --- | --- | --- | --- | --- |
| > 10000 nM | 137 to 139 °C | – | – | Nc1nc(Sc2ccccc2)nc2c1ncn2[C@@H]1O[C@H](CO)[C@@H](O)[C@H]1O [Compound 1, (4S, 2R, 3R, 5R)-2-(6-amino-2-phenylthiopurin-9-yl)-5-(hydroxymethyl)oxolane-3,4-diol] |
| – | 122 to 125 °C | 6120 nM | – | CCNC(=O)[C@H]1O[C@@H](n2cnc3c(N)nc(Sc4ccccc4)nc32)[C@H](O)[C@@H]1O [Compound 1a, [(2S, 3S, 4R, 5R)-5-(6-amino-2-phenylthiopurin-9-yl)-3,4-dihydroxyoxolan-2yl]-N -ethylcarboxamide] |
| 9540 nM | – | – | – | Nc1nc(SCc2ccccc2)nc2c1ncn2[C@@H]1O[C@H](CO)[C@@H](O)[C@H]1O [Compound 2, (4S, 2R. 3R, 5R)-2-(6-amino-2-phenylmethylthiopurin-9-yl)-5-(hydroxymethyl)-oxolane-3,4-diol] |
| – | 245 °C (dec.) | > 10000 nM | – | CCNC(=O)[C@H]1O[C@@H](n2cnc3c(N)nc(SCc4ccccc4)nc32)[C@H](O)[C@@H]1O [Compound 2a, [(2S, 3S, 4R, 5R)-5-(6-amino-2-(phenylmethylthio)purin-9-yl)-3,4-dihydroxyoxolan-2yl]-N-ethylcarboxamide] |
| – | 97 to 99 °C | 85 nM | > 10000 nM | CCNC(=O)[C@H]1O[C@@H](n2cnc3c(N)nc(SCCc4ccccc4)nc32)[C@H](O)[C@@H]1O [Compound 3a, [(2S, 3S, 4R, 5R)-5-(6-amino-2-(phenylethylthio)purin-9-yl)-3,4-dihydroxyoxolan-2-yl]-N-ethylcarboxamide] |
| > 10000 nM | – | – | – | Nc1nc(SCCCc2ccccc2)nc2c1ncn2[C@@H]1O[C@H](CO)[C@@H](O)[C@H]1O [Compound 4, (4S, 2R, 3R, 5R)-2-(6-amino-2-phenylpropylthiopurin-9-yl)-5-(hydroxymethyl)oxolane-3,4-diol] |
| – | 185 to 188 °C | 6280 nM | – | CCNC(=O)[C@H]1O[C@@H](n2cnc3c(N)nc(SCCCc4ccccc4)nc32)[C@H](O)[C@@H]1O [Compound 4a, [(2S, 3S, 4R, 5R)-5-(6-amino-2-(phenylpropylthio)purin-9-yl)-3,4-dihydroxyoxolan-2-yl]-N-ethylcarboxamide] |
| > 10000 nM | 177 °C (dec.) | – | – | CCCCCSc1nc(N)c2ncn([C@@H]3O[C@H](CO)[C@@H](O)[C@H]3O)c2n1 [Compound 5, (4S, 2R,3R, 5R)-2-(6-amino-2-pentyltiopurin-9-yl)-5-(hydroxymethymethyl)oxolane-3,4-diol] |
| – | > 270 °C (dec.) | 4310 nM | – | CCCCCSc1nc(N)c2ncn([C@@H]3O[C@H](C(=O)NCC)[C@@H](O)[C@H]3O)c2n1 [Compound 5a, [(2S, 3S, 4R, 5R)-5-(6-amino-2-pentylthiopurin-9-yl)-3,4-dihydroxyoxolan-2-yl]-N-ethylcarboxamide] |
| > 100000 nM | 88 to 90 °C | – | – | Nc1nc(SCCCCO)nc2c1ncn2[C@@H]1O[C@H](CO)[C@@H](O)[C@H]1O [Compound 6, (4S, 2R, 3R, 5R)-2-(6-amino-2-(4-hydroxybutylthio)purin-9-yl)-5-(hydroxymethyl)oxolane-3,4-diol] |
| > 10000 nM | 213 °C (dec.) | – | – | Nc1nc(SC2CCCC2)nc2c1ncn2[C@@H]1O[C@H](CO)[C@@H](O)[C@H]1O [Compound 7, (4S, 2R, 3R, 5R)-2-(6-amino-2-cyclopentylthiopurin-9-yl)-5-(hydroxymethyl)oxolane-3,4-diol] |
